System: mouse model for coronary infarction
Assay: hES-derived cardiomyocyte transplant in mouse model for coronary infarction, echocardiography
Assay type: in vivo
Conditions: for cardiac improvement upon grafting with hES derived cardiomyocytes (measured by echocardiography): grafts pre-treated with the agent, animals optionally pre-conditioned with allopurinol and uricase, result in words
Description: Cardiomyocytes were differentiated from human embryonic stem (hES) cells and purified by density gradient centrifugation on Percoll™, according to established methods (WO 03/006950). They were adapted to decrease uric acid production upon engraftment by culturing for 24 hours in standard differentiation medium (containing 20% FBS) to which had been added 50 μg/mL allopurinol, or 0.5 Units/mL human recombinant erythropoietin (EPO). Alternatively, the cells were heat shocked in standard differentiation medium (20% FBS) by incubating at 43° C. for 45 minutes, and then transferring to a 37° C. incubator 24 h prior to harvest.
Recipient mice were prepared to decrease uric acid production by the engrafted cells by daily injection of 800 μg allopurinol and/or 10 μg uricase intramuscularly for each of the 3 days before transplant.
The transplant experiments were performed using a mouse model for coronary infarction in an external research laboratory under a Research Agreement with Geron Corporation. The left anterior descending artery was ligated as follows. Mice were anesthetized in an isoflurane inhalation chamber and received intraperitoneal injection of Ketanest/Xylazine (50 mg/kg). They were then intubated and ventilated for the entire surgical procedure. Rectal temperature was maintained at 37° C. by a thermostatically regulated heating pad. One ligation with a 9.0 silk stitch was performed on the proximal 2 mm portion of the artery.
Using a 25 g needle, 0.25-2×10^6 cells (suspended in differentiation medium without serum) were injected into the demarcated area. Immediately afterwards, a chest tube (16 G Angio-cath) was inserted and the chest was closed in layers. Ventilation was maintained until there was sufficient spontaneous breathing, and extubation followed. The ventricular diameter was measured after three weeks by echocardiography. Fractional shortening ([…])≡[(diameter at diastole minus diameter at systole)÷(diameter at diastole)].

Structure (SMILES) | cardiac improvement upon grafting with hES derived cardiomyocytes (measured by echocardiography) | Fractional shortening at 3 weeks post-treatment (infarcted mice (left anterior descending artery ligation), 0.25-2x10^6 cells injected into infarct area, echocardiography after three weeks)
Oc1ncnc2[nH]ncc12 [allopurinol] | considerably enhanced | 24%
CC(C)Cc1ccc(C(C)C(=O)O)cc1 (stereo not drawn) [ibuprophen] | considerably enhanced | –
